Source: BindingDB's records for doi:10.1016/s0167-0115(98)00050-0 (Uppsala University, 1998)

Tests used:
[1] = biological target: Pancreatic polypeptide receptor 1 (Sus scrofa, UniProt O97505)
[2] = biological target: Neuropeptide Y receptor type 4 (Homo sapiens, UniProt P50391)
[3] = biological target: Neuropeptide Y receptor type 4 (Rattus norvegicus, UniProt Q63447)
Sequence of Neuropeptide Y receptor type 4 (Rattus norvegicus, UniProt Q63447) (Q63447 whole entry): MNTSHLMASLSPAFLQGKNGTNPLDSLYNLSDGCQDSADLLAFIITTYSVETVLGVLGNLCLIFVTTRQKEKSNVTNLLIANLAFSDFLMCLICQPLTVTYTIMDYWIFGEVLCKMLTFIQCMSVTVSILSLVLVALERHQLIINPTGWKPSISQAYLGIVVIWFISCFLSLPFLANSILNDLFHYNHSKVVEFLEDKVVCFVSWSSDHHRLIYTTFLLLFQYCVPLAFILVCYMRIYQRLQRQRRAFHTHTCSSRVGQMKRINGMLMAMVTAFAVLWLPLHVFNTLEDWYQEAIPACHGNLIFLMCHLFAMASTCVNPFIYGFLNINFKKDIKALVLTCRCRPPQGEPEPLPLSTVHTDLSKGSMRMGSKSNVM

Sequence of Pancreatic polypeptide receptor 1 (O97505 whole entry): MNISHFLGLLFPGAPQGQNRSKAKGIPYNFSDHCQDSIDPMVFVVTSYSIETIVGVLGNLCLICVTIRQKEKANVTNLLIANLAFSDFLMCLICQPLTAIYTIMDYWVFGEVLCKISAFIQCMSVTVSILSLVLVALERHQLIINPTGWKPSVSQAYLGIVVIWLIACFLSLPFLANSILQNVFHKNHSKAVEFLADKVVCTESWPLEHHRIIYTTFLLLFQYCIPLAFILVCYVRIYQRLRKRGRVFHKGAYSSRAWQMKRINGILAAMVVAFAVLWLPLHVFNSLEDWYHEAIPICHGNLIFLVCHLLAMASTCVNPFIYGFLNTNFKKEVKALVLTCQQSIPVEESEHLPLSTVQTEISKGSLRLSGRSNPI
Sequence of Neuropeptide Y receptor type 4 (Homo sapiens, UniProt P50391) (P50391 whole entry C240R): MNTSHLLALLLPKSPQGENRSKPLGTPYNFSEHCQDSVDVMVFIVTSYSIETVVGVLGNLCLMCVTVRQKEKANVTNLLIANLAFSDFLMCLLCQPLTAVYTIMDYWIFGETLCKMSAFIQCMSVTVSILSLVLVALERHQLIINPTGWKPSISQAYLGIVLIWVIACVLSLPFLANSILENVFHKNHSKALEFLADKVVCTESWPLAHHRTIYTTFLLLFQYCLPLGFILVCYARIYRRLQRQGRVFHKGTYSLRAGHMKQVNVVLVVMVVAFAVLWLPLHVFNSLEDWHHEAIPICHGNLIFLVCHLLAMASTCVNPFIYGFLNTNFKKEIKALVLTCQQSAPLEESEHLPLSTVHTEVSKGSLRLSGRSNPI

| Compound | Ki [1] [nM] | Ki [2] [nM] | Ki [3] [nM] |
| --- | --- | --- | --- |
| CC[C@H](C)[C@H](NC(=O)[C@H](Cc1ccc(O)cc1)NC(=O)[C@H](CCCNC(=N)N)NC(=O)[C@H](CCCNC(=N)N)NC(=O)[C@H](CC(C)C)NC(=O)[C@H](CC(=O)O)NC(=O)[C@H](C)NC(=O)[C@H](C)NC(=O)[C@H](Cc1ccc(O)cc1)NC(=O)[C@H](CCC(N)=O)NC(=O)[C@H](C)NC(=O)[C@H](CCSC)NC(=O)[C@H](CCC(N)=O)NC(=O)[C@H](CCC(=O)O)NC(=O)[C@@H]1CCCN1C(=O)[C@@H](NC(=O)[C@H](C)NC(=O)[C@H](CC(N)=O)NC(=O)[C@H](CC(=O)O)NC(=O)CNC(=O)[C@@H]1CCCN1C(=O)[C@H](Cc1ccc(O)cc1)NC(=O)[C@@H](NC(=O)[C@@H]1CCCN1C(=O)[C@H](CCC(=O)O)NC(=O)[C@H](CC(C)C)NC(=O)[C@@H]1CCCN1C(=O)[C@H](C)N)C(C)C)[C@@H](C)O)C(=O)N[C@@H](CC(N)=O)C(=O)N[C@@H](CCSC)C(=O)N[C@@H](CC(C)C)C(=O)N[C@H](C(=O)N[C@@H](CCCNC(=N)N)C(=O)N1CCC[C@H]1C(=O)N[C@@H](CCCNC(=N)N)C(=O)N[C@@H](Cc1ccc(O)cc1)C(N)=O)[C@@H](C)O [CAS_59763-91-6] | 0.031 | – | – |
| CC[C@H](C)[C@H](NC(=O)[C@H](Cc1ccc(O)cc1)NC(=O)[C@H](CCCNC(=N)N)NC(=O)[C@H](CCCNC(=N)N)NC(=O)[C@H](CC(C)C)NC(=O)[C@H](CCC(N)=O)NC(=O)[C@@H](NC(=O)[C@H](CCC(=O)O)NC(=O)[C@H](Cc1ccc(O)cc1)NC(=O)[C@H](CCC(N)=O)NC(=O)[C@H](C)NC(=O)[C@H](CCCNC(=N)N)NC(=O)[C@H](CCC(N)=O)NC(=O)[C@H](CCC(=O)O)NC(=O)[C@H](Cc1c[nH]cn1)NC(=O)[C@@H](NC(=O)[C@H](C)NC(=O)[C@H](Cc1ccc(O)cc1)NC(=O)[C@H](CC(=O)O)NC(=O)CNC(=O)[C@@H]1CCCN1C(=O)[C@H](Cc1ccc(O)cc1)NC(=O)[C@H](CCSC)NC(=O)[C@@H]1CCCN1C(=O)[C@H](CCC(=O)O)NC(=O)[C@H](CC(C)C)NC(=O)[C@@H]1CCCN1C(=O)[C@H](C)N)[C@@H](C)O)[C@@H](C)O)C(=O)N[C@@H](CC(N)=O)C(=O)N[C@H](C(=O)N[C@@H](CC(C)C)C(=O)N[C@H](C(=O)N[C@@H](CCCNC(=N)N)C(=O)N1CCC[C@H]1C(=O)N[C@@H](CCCNC(=N)N)C(=O)N[C@@H](Cc1ccc(O)cc1)C(N)=O)[C@@H](C)O)[C@@H](C)O [NSC_41735] | 0.044 | 0.071 | 0.0027 |
| H-APLEPEYPGDNATPEQMAQYAAELRRYINMLTRPRY-NH2 [CAS_59763-91-6] | 0.013 | 0.031 | 0.006 |
